Measured values taken from US20070172844A1, “Individualized cancer treatments” (University of South Florida, priority 2005, published 2007).

Assays:
[1] = system: advanced ovarian cancer patients; assay: Clinical response to salvage chemotherapy (topotecan, paclitaxel, docetaxel); type: in vivo, human; settings: for Actual Overall response: Ovarian, single agent salvage therapy
Text: Classification of topotecan response—Response to therapy was retrospectively evaluated from the medical record using standard criteria for patients with measurable disease, based upon WHO guidelines (Miller A B, et al., Cancer 1981;47:207-14). CA-125 was used to classify responses only in the absence of a measurable lesion; CA-125 response criteria were based on established guidelines (Miller A B, et al. Cancer 1981;47:207-14; Rustin G J, et al., Ann. Onco. 110:21-27, 1999). […] A complete response (CR) was defined as a complete disappearance of all measurable and assessable disease or, in the absence of measurable lesions, a normalization of the CA-125 level following topotecan therapy. A partial response (PR) was considered a 50% or greater reduction in the product obtained from measurement of each bi-dimensional lesion for at least 4 weeks or a drop in the CA-125 by at least 50% for at least 4 weeks. Progressive disease (PD) was defined as a 50% or greater increase in the product from any lesion documented within 8 weeks of initiation of therapy, the appearance of any new lesion within 8 weeks of initiation of therapy, or any increase in the CA-125 from baseline at initiation of therapy. Stable disease (SD) was defined as disease not meeting any of the above criteria.
Tissues—We measured expression of 22,283 genes in 12 ovarian cancer cell lines and 48 advanced (FIGO stage III/IV) serous epithelial ovarian carcinomas using Affymetrix U133A GeneChips. All ovarian cancers were obtained at initial cytoreductive surgery from patients treated at H. Lee Moffitt Cancer Center & Research Institute or Duke University Medical Center. All patients received topotecan as salvage chemotherapy after initial platinum based therapy. All tissues were collected under the auspices of a respective institutional IRB approved protocol with written informed consent.
Classification of topotecan response in tumors—Response to therapy was retrospectively evaluated from the medical record using standard criteria for patients with measurable disease, based upon WHO guidelines ((Miller A B, et al., Cancer 1981;47:207-14). CA-125 was used to classify responses only in the absence of a measurable lesion; CA-125 response criteria were based on established guidelines (Miller A B, et al. Cancer 1981;47:207-14; Rustin G J, et al., Ann. Onco. 110:21-27, 1999). A complete responder was defined as a complete disappearance of all measurable and assessable disease or, in the absence of measurable lesions, a normalization of the CA-125 level following topotecan therapy. Non-responders/patients with progressive disease (PD) were defined as a 50% o or greater increase in the primary lesion(s) documented within 8 weeks of initiation of therapy or the appearance of any new lesion within 8 weeks of initiation of therapy.
Full details of the methods used for RNA extraction and development of gene expression signatures representing deregulation of oncogenic pathways in the tumor samples are recently described.^36 Response to therapy was evaluated using standard criteria for patients with measurable disease, based upon WHO guidelines.^28

[2] = system: ovarian cancer cell lines; assay: Cell proliferation assays (MTS, percentage reduction in growth at 120 hr), Example 1; type: cell-based, human; settings: inhibition of proliferation vs probability of pathway activation
Description: Cell lines and RNA extraction-The ovarian cancer cell lines, OV90, TO[…], and TO[…] were grown as recommended by the supplier (ATCC, Rockville, Md.). FUOV1, a human ovarian carcinoma, was grown according to the supplier (DSMZ, Braunschweig, Germany). Eight additional cell lines (C13, OV2008, A2780CP, A2780S, IGROV1, T8, OVCAR5 and IMCC3) were provided by Dr. Patricia Kruk, Department of Pathology, College of Medicine (University of South Florida, Tampa, Fla.). […] All tissue culture reagents were obtained from Sigma Aldrich (St. Louis, Mo.). Total RNA was extracted from each cell line and assayed on the Human 133 plus 2.0 arrays. Cell proliferation assays-Assays measuring cell proliferation and the effects of targeted agents have been described previously^36. Briefly, growth curves for the ovarian cancer cell lines were carried out by plating 300-4000 cells per well of a 96-well plate. The growth of cells at 12 hr time points (from t=12 hrs) was determined using the CellTiter 96 Aqueous One Solution Cell Proliferation Assay Kit by Promega, which is a colorimetric method for determining the number of growing cells. […] The degree of proliferation inhibition was plotted as a function of probability of Src pathway activation or E2F3 pathway activation.

[3] = system: ovarian cancer cell lines; assay: Cell proliferation assays (percent reduction in growth at 96 hrs), 12 ovarian cancer cell lines, Examples 2 and 3; type: cell-based, human
Description: Cell Culture—All liquid media as well as the Thiazolyl Blue Tetrazolium Bromide were purchased from Sigma Aldrich (St. Louis, Mo.). The Src inhibitor SU6656 and the Topotecan hydrochloride were purchased from Calbiochem (San Diego, Calif.). The ovarian cancer cell lines, OV90, OVCA5, TOV21G, and TOV12D were grown as recommended by the supplier (ATCC, Rockville, Md.). FUOV1, a human ovarian carcinoma, was grown according to the supplier (DSMZ; Braunschweig, Germany). Seven additional cell lines (C13, OV2008, A2780CP, A2780S, IGROV1, T8, IMCC3) were provided by Dr. Patricia Kruk, College of Medicine (University of South Florida, Fla.). All of those seven cell lines were grown in RPMI 1640, supplemented with 10% Fetal Bovine Serum, 1% sodium pyruvate, and 1% non essential amino acids. All tissue culture reagents were obtained from Sigma (UK).
Cell proliferation assays—Growth curves for cells were produces out by plating at 500-10,000 cells per well of a 96-well plate. The growth of cells at 12 hr time points (from t=12 hrs) was determined using the CellTiter 96 Aqueous One 23 Solution Cell Proliferation Assay Kit by Promega, which is a calorimetric method for determining the number of growing cells. […] Cumulatively, these experiments determined the concentration of cells to use for each cell line, as well as the dosing range of the inhibitors. […] Sensitivity to topotecan and a Src inhibitor (SU6656), both single alone and combined was determined by quantifying the percent reduction in growth (versus DMSO controls) at 96 hrs. […]
In the analysis of the various oncogenic pathways, analysis of expression data was done as previously described in Bild A, et al., Nature 439:353-357, 2006 and West M, et al., Proc. Natl. Acad. Sci. USA 2001;98(20):11462-7). […] Each oncogenic signature summarizes its constituent genes as a single expression profile, and is derived as the first principal component of that set of genes (the factor corresponding to the largest singular value) as determined by a singular value decomposition. […]

[4] = system: adriamycin treated patients; settings: Evans et al data set, n=122; cited from earlier work
breast cancer patients = settings: Breast Tumor Data; published neoadjuvant data sets (MDACC TFAC n=51, complete pathologic response; single agent docetaxel n=24); cited from earlier work
[5] = system: ovarian cancer cell lines; assay: Cell proliferation assay (MTT, 96 hrs), topotecan and SU6656 in 13 ovarian cell lines; type: cell-based, human; settings: 13 ovarian cancer cell lines
Description: Cell proliferation assays. Growth curves for cells were produced by plating 500-10,000 cells per well in 96-well plates. The growth of cells at 12 hr time points (from t=12 hrs) was determined using the CellTiter 96 Aqueous One 23 Solution Cell Proliferation Assay Kit by Promega, which is a colorimetric method for determining the number of growing cells.^36 The growth curves plot the growth rate of cells vs. each concentration of drug tested against individual cell lines. Cumulatively, these experiments determined the concentration of cells to use for each cell line, as well as the dosing range of the inhibitors. The final dose-response curves in our experiments plot the percent of cell population responding to the chemotherapy vs. the concentration of the drug for each cell line. Sensitivity to docetaxel and a phosphatidylinositol 3-kinase (PI3 kinase) inhibitor (LY-294002)^36 in 17 lung cell lines, and topotecan and a Src inhibitor (SU6656) in 13 ovarian cell lines was determined by quantifying the percent reduction in growth (versus DMSO controls) at 96 hrs using a standard MTT colorimetric assay.^36 Concentrations used ranged from 1-10 nM for docetaxel, 300 nM-10 μM (SU6656), and 300 nM-[…] for LY-294002. All experiments were repeated at least three times.

CC(=O)O[C@H]1C(=O)[C@@]2(C)[C@H]([C@H](OC(=O)c3ccccc3)[C@]3(O)C[C@H](OC(=O)[C@H](O)[C@@H](NC(=O)c4ccccc4)c4ccccc4)C(C)=C1C3(C)C)[C@]1(OC(C)=O)CO[C@@H]1C[C@@H]2O [Paclitaxel, paclitaxel]
Actual Overall response [1]: 20/35 (57.1%)

CC[C@@]1(O)C(=O)OCc2c1cc1n(c2=O)Cc2cc3c(CN(C)C)c(O)ccc3nc2-1 [Topotecan, topotecan]
Actual Overall response [1]: 20/48 (41.6%)
patients classified as topotecan non-responders ([1]; of 48 patients, non-responder = PD): 18
patients classified as topotecan responders ([1]; of 48 patients, responder = CR, PR or SD): 30

N.N.[Cl][Pt][Cl] [cisplatin]
relationship between predicted pathway deregulation (Src or E2F3) and drug sensitivity [2]: no evident relationship

CC[C@H](CO)Nc1nc(NCc2ccccc2)c2ncn(C(C)C)c2n1 [CYC202/R-Roscovitine]
relationship between predicted adriamycin resistance and sensitivity to cdk inhibitor ([3]; ovarian cancer cell lines): coincides with sensitivity to R-Roscovitine
relationship between predicted pathway deregulation (Src or E2F3) and drug sensitivity [2]: clear and statistically significant relationship

COc1cccc2c1C(=O)c1c(O)c3c(c(O)c1C2=O)C[C@@](O)(C(=O)CO)C[C@@H]3O[C@H]1C[C@H](N)[C@H](O)[C@H](C)O1 [Adriamycin, adriamycin]
Actual Overall response [4]: 24/122 (19.6%)

CC(=O)O[C@@]12CO[C@@H]1C[C@H](O)[C@@]1(C)C(=O)[C@H](O)C3=C(C)[C@@H](OC(=O)[C@H](O)[C@@H](NC(=O)OC(C)(C)C)c4ccccc4)C[C@@](O)([C@@H](OC(=O)c4ccccc4)[C@H]21)C3(C)C [Docetaxel, docetaxel]
Actual Overall response [1]: 7/14 (50%)
Actual Overall response (breast cancer patients): 13/24 (54.1%)

CN(C)S(=O)(=O)c1ccc2c(c1)/C(=C/c1cc3c([nH]1)CCCC3)C(=O)N2 [SU6656]
relationship between predicted src-pathway deregulation and response to src-inhibitor alone ([3]; 12 ovarian cancer cell lines): clear relationship
effect of Src inhibitor on sensitivity to topotecan ([3]; growth inhibition, 12 ovarian cancer cell lines): increases ovarian cancer cell line sensitivity to topotecan
relationship between probability of topotecan resistance and sensitivity to Src pathway inhibitor [5]: significant linear relationship
relationship between predicted pathway deregulation (Src or E2F3) and drug sensitivity [2]: clear and statistically significant relationship
